Where two headings read alike, the source gives them in different places.
Tests used:
[1] = tested on: HCV genotype 1a (H77 strain) replicon in HUH-7 cells; assay: HCV replicon luciferase reporter assay, genotype 1a; assay type: cell-based; conditions: Hepatitis C virus, Huh-7, 72 h, 3 days incubation
How it was run: (§1)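 Replicon inhibition for both genotypes was measured as Renilla luciferase signal (EnduRen, 7.5 μM final, 2 h) after 3-day, 37° C exposure of replicon-bearing HUH-7 cells in 4% FCS DMEM, 0.5% DMSO. The 1b construct carries S1179I; the 1a H77 construct carries P1496L and S2204I. Twenty-point, 3-fold dilutions were fitted four-parametrically for EC50, and CC50 was taken from multiplexed Cell Titer-Blue.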

[2] = tested on: HCV genotype 1b (Con1) replicon in HUH-7 cells; assay: HCV replicon luciferase reporter assay, genotype 1b; assay type: cell-based; conditions: Hepatitis C virus, Huh-7, 72 h, 3 days incubation
How it was run: as §1

[3] = HCV genotype 1a replicon luciferase, read-out: LE_1a (EC50, range)
[4] = HCV genotype 1b replicon luciferase, read-out: LE_1b (EC50, range)
[5] = HCV genotype 1a replicon luciferase assay, range class, read-out: LE_1a (EC50, range)
[6] = HCV genotype 1a replicon luciferase assay, read-out: LE_1a (EC50)
[7] = HCV genotype 1b replicon luciferase assay, range class, read-out: LE_1b (EC50, range)
[8] = HCV genotype 1b replicon luciferase assay, read-out: LE_1b (EC50)

| SMILES | EC50 [1, 3] | EC50 [2, 4] | EC50 [1, 5] | EC50 [2, 7] | further results |
| --- | --- | --- | --- | --- | --- |
| COc1cnc(O[C@@H]2C[C@H]3C(=O)N[C@]4(C(=O)NS(=O)(=O)C5(CF)CC5)C[C@H]4/C=C\CC[C@@H](C)C[C@@H](C)[C@H](NC(=O)OC(C)(C)C)C(=O)N3C2)c2ccccc12 [Compound 4157, tert-butyl (2R,6S,7R,9R,13aS,14aR,16aS,Z)-14a-(1-(fluoromethyl)cyclopropylsulfonylcarbamoyl)-2-(4-methoxyisoquinolin-1-yloxy)-7,9-dimethyl-5,16-dioxo-1,2,3,5,6,7,8,9,10,11,13a,14,14a,15,16,16a-hexadecahydrocyclopropa[e]pyrrolo[1,2-a][1,4]diazacyclopentadecin-6-ylcarbamate] | < 5.46 nM | < 5.46 nM |  |  |  |
| CCOc1ccc2c(O[C@@H]3C[C@H]4C(=O)N[C@]5(C(=O)NS(=O)(=O)C6(CF)CC6)C[C@H]5/C=C\CC[C@@H](C)C[C@@H](C)[C@H](NC(=O)OC(C)(C)C)C(=O)N4C3)nccc2c1 [Compound 5367, tert-butyl ((2R,6S,7R,9R,13aS,14aR,16aS,Z)-2-((6-ethoxyisoquinolin-1-yl)oxy)-14a-(((1-(fluoromethyl)cyclopropyl)sulfonyl)carbamoyl)-7,9-dimethyl-5,16-dioxo-1,2,3,5,6,7,8,9,10,11,13a,14,14a,15,16,16a-hexadecahydrocyclopropa[e]pyrrolo[1,2-a][1,4]diazacyclopentadecin-6-yl)carbamate] | 0.51 to 1 nM | 0.1 to 0.5 nM |  |  |  |
| CC(C)n1nc(O[C@@H]2C[C@H]3C(=O)N[C@]4(C(=O)NS(=O)(=O)C5CC5)C[C@H]4/C=C\CC[C@H](C)C[C@@H](C)[C@H](NC(=O)OC(C)(C)C)C(=O)N3C2)c2ccccc2c1=O [Compound 1001, tert-butyl ((2R,6S,7R,9S,13aS,14aR,16aS,Z)-14a-((cyclopropylsulfonyl)carbamoyl)-2-((3-isopropyl-4-oxo-3,4-dihydrophthalazin-1-yl)oxy)-7,9-dimethyl-5,16-dioxo-1,2,3,5,6,7,8,9,10,11,13a,14,14a,15,16,16a-hexadecahydrocyclopropa[e]pyrrolo[1,2-a][1,4]diazacyclopentadecin-6-yl)carbamate] |  |  | > 87.4 nM | > 87.4 nM | EC50 [1, 6]: ≥ 1000 nM; EC50 [2, 8]: 449 nM |
| COc1cc(F)cc2c(O[C@@H]3C[C@H]4C(=O)N[C@]5(C(=O)NS(=O)(=O)C6CC6)C[C@H]5/C=C\CC[C@@H](C)C[C@@H](C)[C@H](NC(=O)O[C@H](C)C(F)(F)F)C(=O)N4C3)nccc12 [Compound 3170, (R)-1,1,1-trifluoropropan-2-yl ((2R,6S,7R,9R,13aS,14aR,16aS,Z)-14a-((cyclopropylsulfonyl)carbamoyl)-2-((7-fluoro-5-methoxyisoquinolin-1-yl)oxy)-7,9-dimethyl-5,16-dioxo-1,2,3,5,6,7,8,9,10,11,13a,14,14a,15,16,16a-hexadecahydrocyclopropa[e]pyrrolo[1,2-a][1,4]diazacyclopentadecin-6-yl)carbamate] |  |  | < 5.46 nM | < 5.46 nM |  |
| COc1ccc2c(O[C@@H]3C[C@H]4C(=O)N[C@]5(C(=O)NS(=O)(=O)C6(C)CC6)C[C@H]5/C=C\CC[C@@H](C)C[C@@H](C)[C@H](NC(=O)O[C@H](C)C(F)(F)F)C(=O)N4C3)nc(-c3ccc(OC(C)C)cc3)c(OC)c2c1 [Compound 5350, (R)-1,1,1-trifluoropropan-2-yl ((2R,6S,7R,9R,13aS,14aR,16aS,Z)-2-((3-(4-isopropoxyphenyl)-4,6-dimethoxyisoquinolin-1-yl)oxy)-7,9-dimethyl-14a-(((1-methylcyclopropyl)sulfonyl)carbamoyl)-5,16-dioxo-1,2,3,5,6,7,8,9,10,11,13a,14,14a,15,16,16a-hexadecahydrocyclopropa[e]pyrrolo[1,2-a][1,4]diazacyclopentadecin-6-yl)carbamate] | < 5.46 nM | < 5.46 nM |  |  | EC50 ([1]; HCV genotype 1a replicon luciferase, read-out: LE_1a (EC50)): 2.12 nM; EC50 ([2]; HCV genotype 1b replicon luciferase, read-out: LE_1b (EC50)): 1.48 nM |
| CCCOc1cc2c(Cl)cccc2c(O[C@@H]2C[C@H]3C(=O)N[C@]4(C(=O)NS(=O)(=O)C5(C)CC5)C[C@H]4/C=C\CC[C@@H](C)C[C@@H](C)[C@H](NC(=O)OC(C)(C)C)C(=O)N3C2)n1 [Compound 1072, tert-butyl ((2R,6S,7R,9R,13aS,14aR,16aS,Z)-2-((5-chloro-3-propoxyisoquinolin-1-yl)oxy)-7,9-dimethyl-14a-(((1-methylcyclopropyl)sulfonyl)carbamoyl)-5,16-dioxo-1,2,3,5,6,7,8,9,10,11,13a,14,14a,15,16,16a-hexadecahydrocyclopropa[e]pyrrolo[1,2-a][1,4]diazacyclopentadecin-6-yl)carbamate] |  |  | < 5.46 nM | < 5.46 nM |  |
| COCCOc1cnc(O[C@@H]2C[C@H]3C(=O)N[C@]4(C(=O)NS(=O)(=O)C5(C)CC5)C[C@H]4/C=C\CC[C@H](C)C[C@@H](C)[C@H](NC(=O)OC4COC4)C(=O)N3C2)c2ccc(OC)cc12 [Compound 1156, oxetan-3-yl((2R,6S,7R,9S,13aS,14aR,16aS,Z)-2-((6-methoxy-4-(2-methoxyethoxyl)isoquinolin-1-yl)oxy)-7,9-dimethyl-14a-(((1-methylcyclopropyl)sulfonyl)carbamoyl)-5,16-dioxo-1,2,3,5,6,7,8,9,10,11,13a,14,14a,15,16,16a-hexadecahydrocyclopropa[e]pyrrolo[1,2-a][1,4]diazacyclopentadecin-6-yl)carbamate] |  |  | 4.82 to 103 nM | 4.82 to 103 nM |  |
| COc1ccc2c(O[C@@H]3C[C@H]4C(=O)N[C@]5(C(=O)NS(=O)(=O)C6(C)CC6)C[C@H]5/C=C\CC[C@@H](C)C[C@@H](C)[C@H](NC(=O)OC(C)(C)C(F)(F)F)C(=O)N4C3)ncc(N3C[C@@H](C)O[C@@H](C)C3)c2c1 [Compound 4132] |  |  |  |  | EC50 ([1]; GETYPE1A, HCV genotype 1a replicon luciferase, read-out: LE_1a (EC50, range)): < 5.46 nM; EC50 ([2]; GETYPE1B, HCV genotype 1b replicon luciferase, read-out: LE_1b (EC50, range)): < 5.46 nM |
| [2H]C([2H])([2H])C(OC(=O)N[C@@H]1C(=O)N2C[C@H](Oc3ncc(OC)c4ccccc34)C[C@H]2C(=O)N[C@]2(C(=O)NS(=O)(=O)C3(C)CC3)C[C@H]2/C=C\CC[C@@H](C)C[C@H]1CC)(C([2H])([2H])[2H])C(F)(F)F [Compound 5431] | 1.01 to 5 nM | 1.01 to 5 nM |  |  |  |
| CCOc1cc2ccccc2c(O[C@@H]2C[C@H]3C(=O)N[C@]4(C(=O)NS(=O)(=O)C5(CF)CC5)C[C@H]4/C=C\CC[C@@H](C)C[C@@H](C)[C@H](NC(=O)OC(C)(C)C(F)(F)F)C(=O)N3C2)n1 [Compound 6112, 1,1,1-trifluoro-2-methylpropan-2-yl((2R,6S,7R,9R,13aS,14aR,16aS,Z)-2-((3-ethoxyisoquinolin-1-yl)oxy)-14a-(((1-(fluoromethyl)cyclopropyl)sulfonyl)carbamoyl)-7,9-dimethyl-5,16-dioxo-1,2,3,5,6,7,8,9,10,11,13a,14,14a,15,16,16a-hexadecahydrocyclopropa[e]pyrrolo[1,2-a][1,4]diazacyclopentadecin-6-yl)carbamate] | 1.01 to 5 nM | 0.51 to 1 nM |  |  |  |
| CC(C)Oc1cc2ccccc2c(O[C@@H]2C[C@H]3C(=O)N[C@]4(C(=O)NS(=O)(=O)C5(CF)CC5)C[C@H]4/C=C\CC[C@@H](C)C[C@@H](C)[C@H](NC(=O)OC(C)(C)C)C(=O)N3C2)n1 [Compound 6110, tert-butyl ((2R,6S,7R,9R,13aS,14aR,16aS,Z)-14a-(((1-(fluoromethyl)cyclopropyl)sulfonyl)carbamoyl)-2-((3-isopropoxyisoquinolin-1-yl)oxy)-7,9-dimethyl-5,16-dioxo-1,2,3,5,6,7,8,9,10,11,13a,14,14a,15,16,16a-hexadecahydrocyclopropa[e]pyrrolo[1,2-a][1,4]diazacyclopentadecin-6-yl)carbamate] | 1.01 to 5 nM | 0.51 to 1 nM |  |  |  |
| CC[C@@H]1C[C@H](C)CC/C=C\[C@@H]2C[C@@]2(C(=O)NS(=O)(=O)C2(C)CC2)NC(=O)[C@@H]2C[C@@H](Oc3cnc4ccc(OC)cc4c3)CN2C(=O)[C@H]1NC(=O)OC(C)(C)C [Compound 4201, tert-butyl (2R,6S,7R,9R,13aS,14aR,16aS,Z)-7-ethyl-2-(6-methoxyquinolin-3-yloxy)-9-methyl-14a-(1-methylcyclopropylsulfonylcarbamoyl)-5,16-dioxo-1,2,3,5,6,7,8,9,10,11,13a,14,14a,15,16,16a-hexadecahydrocyclopropa[e]pyrrolo[1,2-a][1,4]diazacyclopentadecin-6-ylcarbamate] | < 5.46 nM | < 5.46 nM |  |  |  |
| CC(C)n1nc(O[C@@H]2C[C@H]3C(=O)N[C@]4(C(=O)NS(=O)(=O)C5(C)CC5)C[C@H]4/C=C\CC[C@H](C)C[C@@H](C)[C@H](NC(=O)OC(C)(C)C(F)(F)F)C(=O)N3C2)c2ccccc2c1=O [Compound 1011, 1,1,1-trifluoro-2-methylpropan-2-yl((2R,6S,7R,9S,13aS,14aR,16aS,Z)-2-((3-isopropyl-4-oxo-3,4-dihydrophthalazin-1-yl)oxy)-7,9-dimethyl-14a-(((1-methylcyclopropyl)sulfonyl)carbamoyl)-5,16-dioxo-1,2,3,5,6,7,8,9,10,11,13a,14,14a,15,16,16a-hexadecahydrocyclopropa[e]pyrrolo[1,2-a][1,4]diazacyclopentadecin-6-yl)carbamate] |  |  | > 87.4 nM | > 87.4 nM | EC50 [1, 6]: ≥ 1000 nM; EC50 [2, 8]: 362 nM |

— patent publication US9499550B2 (BRISTOL-MYERS SQUIBB COMPANY, priority 2012, dated 2016)
